Target: agmTA1 receptor (Chlorocebus aethiops (Cercopithecus aethiops, African green monkey), UniProt A0A0D9SAC2, I11T/L334F)
Experiment: CRE-luciferase reporter functional assay in HEK293 cells transiently expressing agmTA1 receptor
Format: cell-based
Conditions: HEK293 cells transfected with pcDNA3.1-agmTA1 and pCRE-Luc; agonist 0.1 nM to 100 μM, 16 to 18 hours; luciferase activity

Question: How did the EC50 turn out when NCC(O)c1ccc(O)cc1 (stereo not drawn) [octopamine] was run?
Answer: ~200 nM

Question: How did the EC50 turn out when NCCc1c[nH]c2ccccc12 [tryptamine] was run?
Answer: ~940 nM

Question: Which EC50 does the source give for NCCc1ccc(O)cc1 [tyramine] here?
Answer: ~16 nM
